One may read the pIC50 as the IC50 on a negative log10 scale, so that one unit is a factor of ten.

One assay deals with MS751 cells. In words: MTT cell proliferation assay, MS751. Format: cell-based, human. The conditions noted are these: Homo sapiens, MS751, MS751 cells; eight concentrations 1 nM to 30 μM; incubation approximately 64-72 hours; read-out: MTT Assay IC50, MS751. In outline:
(§1)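 Read-out: MTT reduction to formazan, solubilised and measured at 490 nm after ~4 h with MTT; inhibition (%) = (1-(ODo/OD))×100 relative to negative control. Seeding was 5,000-10,000 cells/well with overnight attachment. Eight test concentrations spanned 1 nM-30 μM; mostly duplicate, mean ± SE.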

The subject of another assay is Z138 cells. The assay is described as follows: MTT cell proliferation assay, Z138. The conditions noted are these: Homo sapiens, Z-138, Z138 cells; eight concentrations 1 nM to 30 μM; incubation approximately 64-72 hours; read-out: MTT Assay IC50, Z138. The assay is classed as cell-based. The procedure, abridged:
as §1

Another assay relates to 3T3 cells. In words: MTT cell proliferation assay, 3T3. The assay is classed as cell-based, mouse. The conditions noted are these: Mus musculus, NIH3T3, 3T3 cells; eight concentrations 1 nM to 30 μM; incubation approximately 64-72 hours; read-out: MTT Assay IC50, 3T3. The procedure, abridged:
as §1
For orientation: Formazan colour is commonly taken as a measure of viable cells.

Assay [1] relates to MDA-MB-468 (triple negative breast) cancer xenograft. In words: MDA-MB-468 mouse xenograft model. Format: in vivo, CB-17 SCID mice. The conditions noted are these: 30 mg/kg QDx5 or 15 mg/kg QDx5 PO for 9 weeks; SCID mice with MDA-MB-468 tumors; versus vehicle. As to the method:
The oncological impact of Compound 116 was tested using a MDA-MB-468 (triple negative breast) cancer xenograft model in CB-17 SCID mice. MDA-MB-468 (ATCC # HTB-102) breast adenocarcinoma cells were obtained from ATCC. These cells were grown in high glucose DMEM medium supplemented with 10% fetal bovine serum, 1% penicillin and streptomycin, and 2 mM L-glutamine. Cells were sub-cultured by dilution at a ratio of 1:4. MDA-MB-468 cells were harvested by trypsinization and counted using a hemocytometer. Cells were resuspended in PBS at a concentration of 4×10^8 cells per mL. Cells were placed on ice and mixed with an equal volume of Matrigel (BD Biosciences CB-40234). This mixture was kept on ice and injected into the left flank of mice in a volume of 0.2 mL, equivalent to 4×10^7 cells per mouse. When the tumors reached a mean size of between 100 and 200 mm^3, mice were randomly and prospectively divided. Tumor bearing mice were treated with vehicle or Compound 116 on M-F (QDx5/week) for 9 weeks. Compound 116 was administered orally (PO) at initial doses of 15 and 30 mg/kg five times a week. Animals' weights and condition were recorded daily, tumors were measured once every two days with micro-calipers, and tumor volume was calculated as (length×width×width)/2.

The next assay concerns MDA-MB-231 cell line. The assay is described as follows: MTT cell proliferation assay, MDA-MB-231. The assay is classed as cell-based. The conditions noted are these: Homo sapiens, incubation approximately 64-72 hours. As to the method: (§2) The MTT cell proliferation assay was used to study the cytotoxic properties of the compounds. The assay was performed according to the method described by Roche Molecular Biochemicals, with minor modifications. The assay is based on the cleavage of the tetrazolium salt, MTT, in the presence of an electron-coupling reagent. The water-insoluble formazan salt produced must be solubilized in an additional step. Cells grown in a 96-well tissue culture plate were incubated with the MTT solution for approximately 4 hours. After this incubation period, a water-insoluble formazan dye formed. After solubilization, the formazan dye was quantitated using a scanning multi-well spectrophotometer (ELISA reader). […] The cells were seeded at 5,000-10,000 cells in each well of 96-well plate in 100 μL of fresh culture medium and were allowed to attach overnight. The stock solutions of the compounds were diluted in 100 μL cell culture medium to obtain eight concentrations of each test compound, ranging from 1 nM to 30 μM. […] All optical densities were measured at 490 nm using a Vmax Kinetic Microplate Reader (Molecular Devices). In most cases, the assay was performed in duplicate and the results were presented as a mean percent inhibition to the negative control±SE. The following formula was used to calculate the percent of inhibition: Inhibition (%)=(1-(ODo/OD)) ×100. […]

The next assay relates to MDA-MB-468 cell line. The assay is described as follows: MTT cell proliferation assay, MDA-MB-468. Format: cell-based. The conditions noted are these: Homo sapiens, incubation approximately 64-72 hours. As to the method:
as §2

The subject of the next assay is NHDF cells. In words: MTT cell proliferation assay, NHDF. The assay is classed as cell-based. The conditions noted are these: Homo sapiens, incubation approximately 64-72 hours. As to the method: as §2
Another assay deals with HEP 3B cells. In words: MTT cell proliferation assay, HEP 3B. Format: cell-based. The conditions noted are these: Homo sapiens, Hep3B, incubation approximately 64-72 hours. As to the method: (§3) The MTT cell proliferation assay was used to study the cytotoxic properties of the compounds. The assay was performed according to the method described by Roche Molecular Biochemicals, with minor modifications. The assay is based on the cleavage of the tetrazolium salt, MTT, in the presence of an electron-coupling reagent. The water-insoluble formazan salt produced must be solubilized in an additional step. Cells grown in a 96-well tissue culture plate were incubated with the MTT solution for approximately 4 hours. After this incubation period, a water-insoluble formazan dye formed. After solubilization, the formazan dye was quantitated using a scanning multi-well spectrophotometer (ELISA reader). […] The cells were seeded at 5,000-10,000 cells in each well of 96-well plate in 100 μL of fresh culture medium and were allowed to attach overnight. The stock solutions of the compounds were diluted in 100 μL cell culture medium to obtain eight concentrations of each test compound, ranging from 1 nM to 30 μM. […] All optical densities were measured at 490 nm using a Vmax Kinetic Microplate Reader (Molecular Devices). In most cases, the assay was performed in duplicate and the results were presented as a mean percent inhibition to the negative control±SE. The following formula was used to calculate the percent of inhibition: Inhibition (%)=(1-(ODo/OD)) ×100.
(§4) The M24 cell line is derived from human melanoma cells. The U2OS cell line is a human osteosarcoma cell line expressing wild type p53 and Rb, but lacking p16. The MM1S cell line is a multiple myeloma cell line; the parent cell line, MM.1, was established from peripheral blood of a multiple myeloma patient who had become resistant to steroid-based therapy. The RPMI8226 cell line is derived from human B lymphocyte cells. NHDF cells are normal human dermal fibroblast cells. The MRC-5 cell line is derived from normal lung tissue of a fetus. The LN18 cell line is a human malignant glioma cell line. The DU-145 cell line is a human prostate cancer cell line. A549 cells are human adenocarcinomic human alveolar basal epithelial cells. […]

The next assay relates to MM1S cell line. The assay is described as follows: MTT cell proliferation assay, MM1S. The assay is classed as cell-based. The conditions noted are these: Homo sapiens, MM1.S, incubation approximately 64-72 hours. As to the method:
as §3, §4

For the next assay, the system named is RPMI8226 cell line. The assay is described as follows: MTT cell proliferation assay, RPMI8226. Format: cell-based. The conditions noted are these: Homo sapiens, RPMI-8226, incubation approximately 64-72 hours. As to the method:
as §2

The subject of another assay is Hep G2 cells. In words: MTT cell proliferation assay, Hep G2. The conditions noted are these: Homo sapiens, HepG2, incubation approximately 64-72 hours. Format: cell-based. As to the method: as §3
The M24 cell line is derived from human melanoma cells. The U2OS cell line is a human osteosarcoma cell line expressing wild type p53 and Rb, but lacking p16. The MM1S cell line is a multiple myeloma cell line; the parent cell line, MM.1, was established from peripheral blood of a multiple myeloma patient who had become resistant to steroid-based therapy. The RPMI8226 cell line is derived from human B lymphocyte cells. NHDF cells are normal human dermal fibroblast cells. The MRC-5 cell line is derived from normal lung tissue of a fetus. The LN18 cell line is a human malignant glioma cell line. The DU-145 cell line is a human prostate cancer cell line. A549 cells are human adenocarcinomic human alveolar basal epithelial cells. The MOLT4 cell line is a human acute lymphoblastic leukemia cell line. The THP1 cell line is a human leukemic monocytic cell line derived from peripheral blood. The OCIAML5 cell line is a human acute myeloid leukemia cell line. The MDA-MB-231 cell line is a human breast adenocarcinoma cell line. The MDA-MB-468 cell line is a human breast carcinoma cell line. HL-60 cells are human promyelocytic leukemia cells. Hep G2 cells are human hepatocellular carcinoma cells. HEP 3B cells are human hepatocellular carcinoma cells. The DLD-1 cell line is a colorectal adenocarcinoma cell line. The HCT-15 cell line is a human colon carcinoma cell line. The Colo-205 cell line is derived from a human adenocarcinoma of the colon. […]

The subject of a further assay is LoVo cell line. The assay is described as follows: MTT cell proliferation assay, LoVo. Format: cell-based. The conditions noted are these: Homo sapiens, incubation approximately 64-72 hours. As to the method: as §2
For the next assay, the system named is Colo-205 cell line. The assay is described as follows: MTT cell proliferation assay, Colo-205. The assay is classed as cell-based. The conditions noted are these: Homo sapiens, incubation approximately 64-72 hours. As to the method: as §2
The next assay has as its system U2OS cell line. The assay is described as follows: MTT cell proliferation assay, U2OS. Format: cell-based. The conditions noted are these: Homo sapiens, incubation approximately 64-72 hours. As to the method:
as §2

The test system of assay [2] is PAK4 interactors and downstream proteins. The assay is described as follows: Immunoblots of PAK4 interactors and downstream proteins in U2OS cells. Format: cell-based, human. The conditions noted are these: 0.5 μM or 5 μM, 72 hours. As to the method: Immunoblots were used to measure the effects of exemplary compounds on protein steady-state levels and phophorylation of PAK4 interactor and downstream proteins. Specifically, U2OS (osteosarcoma) cells were split and plated on day 1. After overnight attachment to the tissue culture plate, cells were treated with either DMSO (0), 37 nM, 111 nM, 333 nM, 1 μM, or 3 μM Compound 246 for 72 hours. Cells were collected, washed and lysed in RIPA buffer. After obtaining the protein concentration by BCA assay, lysates were boiled in loading buffer and run on SDS-PAGE. The gels were transferred to nitrocellulose membranes and blotted with antibodies raised against phosphor-PAK4, PAK4, phophos-beta-catenin, beta-catenin, GEF-H1, phospho-Akt, Akt, phospho-ERK1/2, ERK1/2, phospho-cofilin, cofilin, phospho-histone H3, histone H3, cyclin D1, Mcl-1, Bcl-2, p21, survivin, caspase 8, caspase 3, PARP, and beta-actin (loading control).
In another experiment, U2OS (osteosarcoma) cells were split and plated on day 1. After overnight attachment to the tissue culture plate, cells were treated with DMSO (Ct), 0.5 μM, or 5 μM of Compound 124, 369, 226, 246, or 907 for 72 hours. Cells were collected, washed and lysed in RIPA buffer. After obtaining the protein concentration by BCA assay, lysates were boiled in loading buffer and run on SDS-PAGE. The gels were transferred to nitrocellulose membranes and blotted with antibodies raised against phophos-beta-catenin, cyclin D1, PAK4, phospho-cofilin, and beta-actin (loading control).
A general note: Immunoblotting shows a protein as a band on a membrane.

A further assay relates to DLD-1 cell line. In words: MTT cell proliferation assay, DLD-1. The assay is classed as cell-based. The conditions noted are these: Homo sapiens, incubation approximately 64-72 hours. As to the method: as §2
In a further assay the test system is DU-145 cell line. The assay is described as follows: MTT cell proliferation assay, DU-145. Format: cell-based. The conditions noted are these: Homo sapiens, incubation approximately 64-72 hours. As to the method:
as §2

For the next assay, the system named is M24 cell line. In words: MTT cell proliferation assay, M24. The assay is classed as cell-based. The conditions noted are these: Homo sapiens, incubation approximately 64-72 hours. As to the method:
as §2

A further assay relates to MRC-5 cell line. The assay is described as follows: MTT cell proliferation assay, MRC-5. The assay is classed as cell-based. The conditions noted are these: Homo sapiens, MRC5, incubation approximately 64-72 hours. As to the method: as §2
The next assay concerns HCT-15 cell line. In words: MTT cell proliferation assay, HCT-15. The conditions noted are these: Homo sapiens, incubation approximately 64-72 hours. Format: cell-based. As to the method:
as §2

pIC50: −log10 of the molar value.

Consider `CC(=O)c1ccc(-c2cc(Cl)c3c(c2)CC(CNC(=O)/C=C/c2ccc(N)nc2)O3)s1` (stereo not drawn) [Compound 116, (E)-N-((5-(5-acetylthiophen-2-yl)-7-chloro-2,3-dihydrobenzofuran-2-yl)methyl)-3-(6-aminopyridin-3-yl)acrylamide], for which the negative-log IC50 (pIC50) in the assay on MS751 cells was 5.30 to 7.00; with Z138 cells, 5.30 to 7.00; in the assay on 3T3 cells, 4.52 to 5.30. Besides, the mean tumor volume entry in assay [1] is listed as “reduced”.
Take `CC(O)c1ccc(-c2cc(Cl)c3c(c2)CC(CNC(=O)/C=C/c2cccnc2)O3)s1` (stereo not drawn) [Compound 124]: the pIC50 in the assay with MDA-MB-231 cell line was 5.30 to 7.00; in the assay on MDA-MB-468 cell line, 5.30 to 7.00; with NHDF cells it was 5.30 to 7.00; with MS751 cells, greater than 7.00; with HEP 3B cells it was 5.30 to 7.00; with MM1S cell line it was greater than 7.00. The negative-log IC50 (pIC50) was greater than 7.00 in the assay on Z138 cells; 5.30 to 7.00 in the assay on RPMI8226 cell line; 5.30 to 7.00 in the assay with Hep G2 cells; 5.30 to 7.00 with LoVo cell line; 5.30 to 7.00 in the assay with Colo-205 cell line; greater than 7.00 with U2OS cell line. Also, the pIC50 in the assay with DLD-1 cell line was 5.30 to 7.00; in the assay on DU-145 cell line, 5.30 to 7.00; in the assay on M24 cell line it was 5.30 to 7.00; in the assay on 3T3 cells, 5.30 to 7.00; in the assay with MRC-5 cell line it was greater than 7.00; with HCT-15 cell line, 5.30 to 7.00. The PAK4 total protein entry in [2] is listed as “decrease”. Moreover, in assay [2], the “phosphorylation of PAK4 signaling proteins beta-catenin and cofilin” value is listed as “decreases in phosphorylation”.

(Values after patent US9938258B2 (Karyopharm Therapeutics Inc., priority 2012, dated 2018).)
